Ki data for one molecule are collected here from patent publication US7550467B2 (Schering Corporation, priority 2004, dated 2009).

pKi: −log10 of the molar value.

The experiment concerns the target T1, MCH receptor (Homo sapiens, UniProt Q99705).
T1 construct: expressed in transfected cells; host or cells: CHO cells
Put plainly: MCH Receptor Binding Assay ([125I]-MCH, SPA beads, membranes from CHO cells expressing the MCH receptor). As to conditions: Ki rating (class). Here is the method: MCH Receptor Binding Assay:
Membranes from CHO cells expressing the MCH receptor were prepared by lysing cells with 5 mM HEPES for 15 minutes at 4° C. Cell lysates were centrifuged ([…], 15 minutes) and the pellet was resuspended in 5 mM HEPES. For each 96-well plate (Microlite, Dynex Technologies), 1 mg of cell membranes were incubated with 10 mg of wheat germ agglutinin SPA beads (Amersham) for 5 minutes at 4° C. in a volume of 10 ml of binding buffer (25 mM HEPES, 10 mM MGCl2, 10 mM NaCl, 5 mM MnCl2, 0.1% BSA). The membrane/bead mixture was centrifuged (1500×g, 3.5 min), the supernatant was aspirated, and the pellet was resuspended in 10 ml binding buffer. The centrifugation, aspiration and resuspension were then repeated. The membrane/bead mixture (100 μl) was then added to 96-well plates containing 50 μl of 500 pM [^125I]-MCH (NEN) and […] of the appropriate concentration of compound (4X the desired final concentration). Nonspecific binding was determined by including 1 μM MCH in the binding reaction. The binding reaction was incubated at room temperature for 2 hours. Plates were then analyzed in a TOPCOUNT microplate scintillation counter (Packard). Data was analyzed and Ki values were determined using GraphPad Prism.

T1 sequence (Q99705 whole entry): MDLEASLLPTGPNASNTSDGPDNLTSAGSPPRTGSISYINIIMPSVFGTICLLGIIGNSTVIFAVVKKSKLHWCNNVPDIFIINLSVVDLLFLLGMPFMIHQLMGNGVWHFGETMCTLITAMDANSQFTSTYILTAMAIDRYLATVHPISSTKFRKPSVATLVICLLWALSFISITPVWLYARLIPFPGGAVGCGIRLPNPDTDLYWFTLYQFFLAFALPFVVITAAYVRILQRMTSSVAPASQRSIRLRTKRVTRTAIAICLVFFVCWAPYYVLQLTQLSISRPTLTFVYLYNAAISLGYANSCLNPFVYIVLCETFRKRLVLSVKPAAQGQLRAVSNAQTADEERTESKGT

Consider `C[C@@H]1CN(CCCN(C(=O)Nc2cc(Cl)nc(Cl)c2)C2COc3ccc(Br)cc3C2)[C@@H](C)CN1C(=O)OC(C)(C)C` (stereo partly shown) [XXIII], for which the pKi (in general, the Ki on a negative log10 scale, so that one unit is a factor of ten) is 5.70 to 6.00.
